Experimental data as given in patent US20250136586A1, “Substituted 7-(Pyrimidin-4-yl)Quinolin-4(1H)-One Compounds as Cyclin Dependent Kinase Inhibitors” (BeiGene, Ltd., priority 2022, published 2025).

How the values were obtained:
CDK4/Cyclin D1 = CDK4/Cyclin D1 (Homo sapiens (Human), UniProt P11802); assay: TR-FRET kinase inhibition assay, CDK4/Cyclin D1; format: biochemical; conditions: 1 mM ATP, 0.15 μM Rb (Ser780)-biotin substrate, read-out: CDK4D1 IC50
Outline: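 Kinase was preincubated with compound for 60 min at room temperature, then reacted with ATP and Rb (Ser780)-biotin substrate for 120 min. IC50 came from a four-parameter logistic fit.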

CDK6/Cyclin D3 = CDK6/Cyclin D3 (Homo sapiens (Human), UniProt Q00534); assay: TR-FRET kinase inhibition assay, CDK6/Cyclin D3; format: biochemical; conditions: 1 mM ATP, 0.15 μM Rb (Ser780)-biotin substrate, read-out: CDK6D3 IC50
Outline: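 Kinase preincubated 60 min at room temperature with 0–10 μM compound; reaction started with 1 mM ATP and 0.15 μM Rb (Ser780)-biotin, run 120 min at room temperature in HEPES pH 7.0, 50 mM MgCl2. pRb detected by TR-FRET (665/620 nm ratio); IC50 from four-parameter logistic fit.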

Chain of CDK4/Cyclin D1 (P11802 whole entry): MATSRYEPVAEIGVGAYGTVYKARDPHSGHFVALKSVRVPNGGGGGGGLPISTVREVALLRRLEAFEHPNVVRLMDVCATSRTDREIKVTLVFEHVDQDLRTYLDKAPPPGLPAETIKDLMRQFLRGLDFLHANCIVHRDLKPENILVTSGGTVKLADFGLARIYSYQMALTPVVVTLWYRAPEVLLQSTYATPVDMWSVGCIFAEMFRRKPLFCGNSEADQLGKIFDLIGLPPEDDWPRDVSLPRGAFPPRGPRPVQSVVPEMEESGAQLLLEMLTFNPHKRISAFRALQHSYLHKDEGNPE
Chain of CDK4/Cyclin D1 (P24385 whole entry partner): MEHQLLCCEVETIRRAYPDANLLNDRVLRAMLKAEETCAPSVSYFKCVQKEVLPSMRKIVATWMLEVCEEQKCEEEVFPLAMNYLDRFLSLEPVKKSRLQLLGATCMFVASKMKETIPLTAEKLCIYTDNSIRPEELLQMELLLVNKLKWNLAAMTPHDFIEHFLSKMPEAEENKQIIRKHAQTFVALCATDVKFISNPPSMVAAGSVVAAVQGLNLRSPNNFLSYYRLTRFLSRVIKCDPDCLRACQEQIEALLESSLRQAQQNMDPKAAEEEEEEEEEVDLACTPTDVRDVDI
Chain of CDK6/Cyclin D3 (Q00534 whole entry): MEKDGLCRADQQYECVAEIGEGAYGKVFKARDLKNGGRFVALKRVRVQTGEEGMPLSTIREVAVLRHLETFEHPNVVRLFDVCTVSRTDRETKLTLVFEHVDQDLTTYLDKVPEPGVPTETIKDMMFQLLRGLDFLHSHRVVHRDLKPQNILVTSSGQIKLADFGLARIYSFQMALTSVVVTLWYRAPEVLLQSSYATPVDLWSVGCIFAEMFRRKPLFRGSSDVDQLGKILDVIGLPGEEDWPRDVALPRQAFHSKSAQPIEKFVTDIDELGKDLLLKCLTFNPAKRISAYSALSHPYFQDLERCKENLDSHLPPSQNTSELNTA
Chain of CDK6/Cyclin D3 (P30281 whole entry partner): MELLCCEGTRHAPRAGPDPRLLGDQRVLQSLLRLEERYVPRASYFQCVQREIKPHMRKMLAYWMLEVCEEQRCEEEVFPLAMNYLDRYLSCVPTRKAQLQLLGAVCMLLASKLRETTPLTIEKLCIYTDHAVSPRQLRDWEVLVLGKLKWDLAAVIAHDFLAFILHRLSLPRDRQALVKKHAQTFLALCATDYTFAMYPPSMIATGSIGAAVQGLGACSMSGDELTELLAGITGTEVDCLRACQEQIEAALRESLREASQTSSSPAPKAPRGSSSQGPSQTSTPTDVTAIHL

| SMILES | IC50 (CDK4/Cyclin D1) [nM] | IC50 (CDK6/Cyclin D3) [nM] |
| --- | --- | --- |
| CNC(=O)c1cc(=O)c2ccc(-c3nc(N[C@@H]4CCOC[C@H]4O)ncc3F)cc2n1C(C)C [Example 7, 7-(5-fluoro-2-(((3S,4R)-3-hydroxytetrahydro-2H-pyran-4-yl)amino)pyrimidin-4-yl)-1-isopropyl-N-methyl-4-oxo-1,4-dihydroquinoline-2-carboxamide] | 14 | 574 |
| CC(C)n1c(CN2CC[C@@H](F)C2)cc(=O)c2ccc(-c3nc(N[C@@H]4CCOC[C@H]4O)ncc3F)cc21 [Example 49, 7-(5-fluoro-2-(((3S,4R)-3-hydroxytetrahydro-2H-pyran-4-yl)amino)pyrimidin-4-yl)-2-(((R)-3-fluoropyrrolidin-1-yl)methyl)-1-isopropylquinolin-4(1H)-one] | 8.3 | 299 |
| CC(C)n1c(CNC2CCC2)cc(=O)c2ccc(-c3nc(N[C@@H]4CCOC[C@H]4O)ncc3F)cc21 [Example 76, 2-((cyclobutylamino)methyl)-7-(5-fluoro-2-(((3S,4R)-3-hydroxytetrahydro-2H-pyran-4-yl)amino)pyrimidin-4-yl)-1-isopropylquinolin-4(1H)-one] | 28 | 588 |
| CC(C)n1cc(C(C)(C)O)c(=O)c2ccc(-c3nc(N[C@@H]4CCOC[C@H]4O)ncc3F)cc21 [Example 5, 7-(5-fluoro-2-(((3S,4R)-3-hydroxytetrahydro-2H-pyran-4-yl)amino)pyrimidin-4-yl)-3-(2-hydroxypropan-2-yl)-1-isopropylquinolin-4(1H)-one] | 249 | 3240 |
| CC(C)n1c(CNC2CC(F)(F)C2)cc(=O)c2ccc(-c3nc(N[C@@H]4CCOC[C@H]4O)ncc3F)cc21 [Example 77, 2-(((3,3-difluorocyclobutyl)amino)methyl)-7-(5-fluoro-2-(((3S,4R)-3-hydroxytetrahydro-2H-pyran-4-yl)amino)pyrimidin-4-yl)-1-isopropylquinolin-4(1H)-one] | 26 | 598 |
| CC(C)n1c(C(=O)NCCC#N)cc(=O)c2ccc(-c3nc(N[C@@H]4CCOC[C@H]4O)ncc3Cl)cc21 [Example 21, 7-(5-chloro-2-(((3S,4R)-3-hydroxytetrahydro-2H-pyran-4-yl)amino)pyrimidin-4-yl)-N-(2-cyanoethyl)-1-isopropyl-4-oxo-1,4-dihydroquinoline-2-carboxamide] | 35 | 385 |
| CC(C)n1c(CN2C3CCC2COC3)cc(=O)c2ccc(-c3nc(N[C@@H]4CCOC[C@H]4O)ncc3F)cc21 [Example 29, 2-((3-oxa-8-azabicyclo[3.2.1]octan-8-yl)methyl)-7-(5-fluoro-2-(((3S,4R)-3-hydroxytetrahydro-2H-pyran-4-yl)amino)pyrimidin-4-yl)-1-isopropylquinolin-4(1H)-one] | 19 | 361 |
| CNC(=O)c1cc(=O)c2c(Cl)cc(-c3nc(N[C@@H]4CCOC[C@H]4O)ncc3F)cc2n1C(C)C [Example 36, 5-chloro-7-(5-fluoro-2-(((3S,4R)-3-hydroxytetrahydro-2H-pyran-4-yl)amino)pyrimidin-4-yl)-1-isopropyl-N-methyl-4-oxo-1,4-dihydroquinoline-2-carboxamide] | 57 | 553 |
| CC(C)n1c(CN2CCC[C@]3(CCN(C)C3=O)C2)cc(=O)c2ccc(-c3nc(N[C@@H]4CCOC[C@H]4O)ncc3F)cc21 [Example 52, (S)-7-((7-(5-fluoro-2-(((3S,4R)-3-hydroxytetrahydro-2H-pyran-4-yl)amino)pyrimidin-4-yl)-1-isopropyl-4-oxo-1,4-dihydroquinolin-2-yl)methyl)-2-methyl-2,7-diazaspiro[4,5]decan-1-one] | 6.4 | 467 |
| Cc1c(CN2[C@@H](C)COC[C@@H]2C)n(C(C)C)c2cc(-c3nc(N[C@@H]4CCOC[C@H]4O)ncc3F)ccc2c1=O [Example 118, 2-(((3S,5S)-3,5-dimethylmorpholino)methyl)-7-(5-fluoro-2-(((3S,4R)-3-hydroxytetrahydro-2H-pyran-4-yl)amino)pyrimidin-4-yl)-1-isopropyl-3-methylquinolin-4(1H)-one] | 1.1 | 51.7 |
| Cc1c(CN2CCC[C@H](O)C2)n(C(C)C)c2cc(-c3nc(N[C@@H]4CCOC[C@H]4O)ncc3F)ccc2c1=O [Example 123, 7-(5-fluoro-2-(((3S,4R)-3-hydroxytetrahydro-2H-pyran-4-yl)amino)pyrimidin-4-yl)-2-(((S)-3-hydroxypiperidin-1-yl)methyl)-1-isopropyl-3-methylquinolin-4(1H)-one] | 4.3 | 129 |
| Cc1c(CN2[C@H](C)COC[C@@H]2C)n(C(C)C)c2cc(-c3nc(N[C@@H]4CCOC[C@H]4O)ncc3F)ccc2c1=O [Example 72, 2-(((3R,5S)-3,5-dimethylmorpholino)methyl)-7-(5-fluoro-2-(((3S,4R)-3-hydroxytetrahydro-2H-pyran-4-yl)amino)pyrimidin-4-yl)-1-isopropyl-3-methylquinolin-4(1H)-one] | 0.8 | 21.6 |
| CC(C)n1c(CN2CCCC2)cc(=O)c2ccc(-c3nc(N[C@@H]4CCOC[C@H]4O)ncc3F)cc21 [Example 100, 7-(5-fluoro-2-(((3S,4R)-3-hydroxytetrahydro-2H-pyran-4-yl)amino)pyrimidin-4-yl)-1-isopropyl-2-(pyrrolidin-1-ylmethyl)quinolin-4(1H)-one] | 19 | 760 |
| CC(C)n1c(CN2C3CCC2COC3)cc(=O)c2ccc(-c3nc(N[C@@H]4CCOC[C@H]4O)ncc3F)cc21 [Example 81, 2-((3-oxa-8-azabicyclo[3.2.1]octan-8-yl)methyl)-7-(5-fluoro-2-(((3S,4R)-3-hydroxytetrahydro-2H-pyran-4-yl)amino)pyrimidin-4-yl)-1-isopropylquinolin-4(1H)-one] | 23 | 483 |
| CC(C)n1cc(C2CC2)c(=O)c2ccc(-c3nc(N[C@@H]4CCOC[C@H]4O)ncc3F)cc21 [Example 9, 3-cyclopropyl-7-(5-fluoro-2-(((3S,4R)-3-hydroxytetrahydro-2H-pyran-4-yl)amino)pyrimidin-4-yl)-1-isopropylquinolin-4(1H)-one] | 59 | 590 |
| CC(C)n1c(CN2CCC(C)(C)C2)cc(=O)c2ccc(-c3nc(N[C@@H]4CCOC[C@H]4O)ncc3F)cc21 [Example 42, 2-((3,3-dimethylpyrrolidin-1-yl)methyl)-7-(5-fluoro-2-(((3S,4R)-3-hydroxytetrahydro-2H-pyran-4-yl)amino)pyrimidin-4-yl)-1-isopropylquinolin-4(1H)-one] | 15 | 645 |
| CC(C)n1c(CN2C[C@H]3COC[C@H]3C2)cc(=O)c2ccc(-c3nc(N[C@@H]4CCOC[C@H]4O)ncc3F)cc21 [Example 41, 7-(5-fluoro-2-(((3S,4R)-3-hydroxytetrahydro-2H-pyran-4-yl)amino)pyrimidin-4-yl)-1-isopropyl-2-(((3aR,6aS)-tetrahydro-1H-furo[3,4-c]pyrrol-5(3H)-yl)methyl)quinolin-4(1H)-one] | 24 | 1300 |
| Cc1cc(=O)c2ccc(-c3nc(N[C@@H]4CCOC[C@H]4O)ncc3Cl)cc2n1C(C)C [Example 11, 7-(5-chloro-2-(((3S,4R)-3-hydroxytetrahydro-2H-pyran-4-yl)amino)pyrimidin-4-yl)-1-isopropyl-2-methylquinolin-4(1H)-one] | 28 | 420 |
